According to patent publication US7138361B2, “Herbicidal heterocycles” (E. I. du Pont de Nemours and Company, priority 2000, dated 2006):

Experiments:
Type in all cases: in vivo
[1] = tested on: Surinam grass (Brachiaria decumbens); assay: Test B preemergence
Procedure, shortened: (§1)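 Ratings on a 0 to 100 visual scale (100 complete control) compare treated plants with controls 13 to 15 days after application. Treatments were pre- or postemergence sprays of compound in non-phytotoxic solvent with surfactant.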

[2] = tested on: morning glory (Ipomoea hederacea); assay: Test B preemergence
Procedure, shortened: as §1

[3] = tested on: corn (Zea mays); assay: Test B preemergence
Procedure, shortened: as §1

[4] = tested on: velvetleaf (Abutilon theophrasti); assay: Test B preemergence
Procedure, shortened: as §1

[5] = tested on: barnyardgrass (Echinochloa crus-galli); assay: Test B preemergence
Procedure, shortened: as §1

[6] = tested on: cocklebur (Xanthium strumarium); assay: Test B preemergence
Procedure, shortened: as §1

[7] = tested on: giant foxtail (Setaria faberii); assay: Test B preemergence
Procedure, shortened: as §1

[8] = tested on: pigweed (Amaranthus retroflexus); assay: Test B preemergence
Procedure, shortened: as §1

[9] = tested on: lambsquarters (Chenopodium album); assay: Test B preemergence
Procedure, shortened: as §1

[10] = tested on: rice (Oryza saliva); assay: Test B preemergence
Procedure, shortened: as §1

[11] = tested on: crabgrass (Digitaria sanguinalis); assay: Test B preemergence
Procedure, shortened: as §1

[12] = tested on: Surinam grass (Brachiaria decumbens); assay: Test B postemergence
Procedure, shortened: as §1

[13] = tested on: morning glory (Ipomoea hederacea); assay: Test B postemergence
Procedure, shortened: as §1

[14] = tested on: corn (Zea mays); assay: Test B postemergence
Procedure, shortened: as §1

[15] = tested on: velvetleaf (Abutilon theophrasti); assay: Test B postemergence
Procedure, shortened: as §1

[16] = tested on: barnyardgrass (Echinochloa crus-galli); assay: Test B postemergence
Procedure, shortened: as §1

[17] = tested on: giant foxtail (Setaria faberii); assay: Test B postemergence
Procedure, shortened: as §1

[18] = tested on: blackgrass (Alopecurus myosuroides); assay: Test B postemergence
Procedure, shortened: as §1

[19] = tested on: pigweed (Amaranthus retroflexus); assay: Test B postemergence
Procedure, shortened: as §1

[20] = tested on: wheat (Triticum aestivum); assay: Test B postemergence
Procedure, shortened: as §1

[21] = tested on: Nightshade; assay: Test C preemergence; conditions: visual evaluation after 12 to 14 days
[22] = tested on: Sunflower; assay: Test C preemergence; conditions: scale 0 to 100, 0 no effect, 100 complete control
[23] = tested on: duck salad (Heteranthera limosa); assay: Test C flooded paddy test; conditions: for Ducksalad plant response rating: Flooded Paddy, scale 0 to 100, 0 no effect, 100 complete control; for Plant response rating, Ducksalad: scale 0 to 100 (0 no effect, 100 complete control)
Procedure, shortened: (§2)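 Flooded paddy, 2-leaf stage at treatment. Readout: visual % control vs untreated, 0–100, at 12–14 d in greenhouse.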

[24] = tested on: barnyardgrass (Echinochloa crus-galli); assay: Test C flooded paddy test; conditions: for Barnyardgrass plant response rating: Flooded Paddy, scale 0 to 100, 0 no effect, 100 complete control; for Plant response rating, Barnyardgrass: scale 0 to 100 (0 no effect, 100 complete control)
Procedure, shortened: as §2

[25] = tested on: smallflower flatsedge (Cyperus difformis); assay: Test C flooded paddy test; conditions: for Flatsedge plant response rating: Flooded Paddy, scale 0 to 100, 0 no effect, 100 complete control; for Plant response rating, Flatsedge: scale 0 to 100 (0 no effect, 100 complete control)
Procedure, shortened: as §2

[26] = tested on: rice (Oryza saliva); assay: Test C flooded paddy test; conditions: for Rice plant response rating: Flooded Paddy, scale 0 to 100, 0 no effect, 100 complete control; for Plant response rating, Rice: scale 0 to 100 (0 no effect, 100 complete control)
Procedure, shortened: as §2

[27] = Preemergence, Rate 500 g/ha, scale 0 to 100, 0 no effect, 100 complete control
[28] = preemergence, Rate 125 g/ha, scale of 0 to 100 where 0 is no effect and 100 is complete control, 13 to 15 days
[29] = Rate 125 g/ha, scale 0 to 100, 0 no effect, 100 complete control
[30] = Rate 500 g/ha, scale 0 to 100, 0 is no effect, 100 is complete control, 13 to 15 days
[31] = flooded paddy test, Rate 125 g/ha
[32] = flooded paddy test, Rate 62 g/ha, visually evaluated after 12 to 14 days, 0 = no effect, 100 = complete control
[33] = preemergence, Rate 125 g/ha, scale 0 to 100, 0 no effect, 100 complete control
[34] = Rate 125 g/ha, scale 0 (no effect) to 100 (complete control), 13 to 15 days
[35] = flooded paddy test, Rate 62 g/ha

CCCC(C)c1ccn(C2CCN(c3cccc(OCC)c3)C2=O)n1 (stereo not drawn) [Compound 129]
Plant response rating, Surinam grass [1, 27]: 100 | Plant response rating, Surinam grass [1, 28]: 90 | Plant response rating, Morningglory [2, 27]: 0 | Plant response rating, Morningglory [2, 28]: 0 | Plant response rating, Corn [3, 27]: 30 | Plant response rating, Corn [3, 28]: 20 | Plant response rating, Velvetleaf [4, 27]: 0 | Plant response rating, Velvetleaf [4, 28]: 0 | Plant response rating, Barnyardgrass [5, 27]: 100 | Plant response rating, Barnyardgrass [5, 28]: 100 | Plant response rating, Cocklebur [6, 27]: 0 | Plant response rating, Cocklebur [6, 28]: 0 | Plant response rating, Foxtail, Giant [7, 27]: 100 | Plant response rating, Foxtail, Giant [7, 28]: 100 | Plant response rating, Pigweed [8, 27]: 100 | Plant response rating, Pigweed [8, 28]: 100 | Plant response rating, Lambsquarters [9, 27]: 100 | Plant response rating, Lambsquarters [9, 28]: 100 | Plant response rating, Rice [10, 27]: 50 | Plant response rating, Rice [10, 28]: 30 | Plant response rating, Crabgrass [11, 27]: 100 | Plant response rating, Crabgrass [11, 28]: 100 | Plant response rating, Surinam grass [12, 29]: 0 | Plant response rating, Surinam grass [12, 30]: 0 | Plant response rating, Morningglory [13, 29]: 0 | Plant response rating, Corn [14, 29]: 0 | Plant response rating, Corn [14, 30]: 0 | Plant response rating, Velvetleaf [15, 29]: 0 | Plant response rating, Barnyardgrass [16, 29]: 0 | Plant response rating, Barnyardgrass [16, 30]: 60 | Plant response rating, Foxtail, Giant [17, 29]: 0 | Plant response rating, Blackgrass [18, 29]: 0 | Plant response rating, Blackgrass [18, 30]: 0 | Plant response rating, Pigweed [19, 29]: 0 | Plant response rating, Wheat [20, 29]: 0 | Plant response rating (0 to 100), Nightshade ([21]; Rate 500 g/ha): 60 | Plant response rating, Sunflower ([22]; Rate 250 g/ha): 10 | Ducksalad plant response rating ([23]; Rate 250 g/ha): 90 | Ducksalad plant response rating ([23]; Rate 500 g/ha): 90 | Plant response rating, Ducksalad [23, 31]: 30 | Plant response rating (scale 0 to 100), Ducksalad [23, 32]: 20 | Barnyardgrass plant response rating ([24]; Rate 250 g/ha): 80 | Barnyardgrass plant response rating ([24]; Rate 500 g/ha): 100 | Plant response rating, Barnyardgrass [24, 31]: 50 | Plant response rating (scale 0 to 100), Barnyardgrass [24, 32]: 30 | Flatsedge plant response rating ([25]; Rate 250 g/ha): 90 | Flatsedge plant response rating ([25]; Rate 500 g/ha): 90 | Plant response rating, Flatsedge [25, 31]: 80 | Plant response rating (scale 0 to 100), Flatsedge [25, 32]: 70 | Rice plant response rating ([26]; Rate 250 g/ha): 0 | Rice plant response rating ([26]; Rate 500 g/ha): 35 | Plant response rating, Rice [26, 31]: 0 | Plant response rating (scale 0 to 100), Rice [26, 32]: 0

CC(C)(C)c1ccn(C2CCN(c3ccc(Cl)c(Cl)c3)C2=O)n1 (stereo not drawn) [Compound 34]
Plant response rating, Surinam grass [1, 27]: 20 | Plant response rating, Surinam grass [1, 33]: 0 | Plant response rating, Morningglory [2, 27]: 0 | Plant response rating, Corn [3, 27]: 0 | Plant response rating, Corn [3, 33]: 0 | Plant response rating, Velvetleaf [4, 27]: 100 | Plant response rating, Barnyardgrass [5, 27]: 60 | Plant response rating, Barnyardgrass [5, 33]: 0 | Plant response rating, Cocklebur [6, 27]: 0 | Plant response rating, Cocklebur [6, 33]: 0 | Plant response rating, Foxtail, Giant [7, 27]: 70 | Plant response rating, Foxtail, Giant [7, 33]: 0 | Plant response rating, Pigweed [8, 27]: 100 | Plant response rating, Lambsquarters [9, 27]: 100 | Plant response rating, Lambsquarters [9, 33]: 20 | Plant response rating, Rice [10, 27]: 0 | Plant response rating, Crabgrass [11, 33]: 100 | Plant response rating, Surinam grass [12, 34]: 0 | Plant response rating, Surinam grass [12, 30]: 0 | Plant response rating, Morningglory [13, 34]: 0 | Plant response rating, Morningglory [13, 30]: 0 | Plant response rating, Corn [14, 34]: 0 | Plant response rating, Corn [14, 30]: 0 | Plant response rating, Velvetleaf [15, 34]: 0 | Plant response rating, Velvetleaf [15, 30]: 0 | Plant response rating, Barnyardgrass [16, 34]: 0 | Plant response rating, Barnyardgrass [16, 30]: 0 | Plant response rating, Foxtail, Giant [17, 34]: 0 | Plant response rating, Foxtail, Giant [17, 30]: 0 | Plant response rating, Blackgrass [18, 34]: 0 | Plant response rating, Blackgrass [18, 30]: 0 | Plant response rating, Pigweed [19, 34]: 90 | Plant response rating, Pigweed [19, 30]: 90 | Plant response rating, Wheat [20, 34]: 0 | Plant response rating, Wheat [20, 30]: 0 | Plant response rating (0 to 100), Nightshade ([21]; Rate 250 g/ha): 0 | Plant response rating, Sunflower ([22]; Rate 125 g/ha): 0 | Ducksalad plant response rating ([23]; Rate 250 g/ha): 70 | Ducksalad plant response rating ([23]; Rate 500 g/ha): 100 | Plant response rating, Ducksalad [23, 35]: 20 | Plant response rating, Ducksalad [23, 31]: 50 | Barnyardgrass plant response rating ([24]; Rate 250 g/ha): 80 | Barnyardgrass plant response rating ([24]; Rate 500 g/ha): 80 | Plant response rating, Barnyardgrass [24, 35]: 0 | Plant response rating, Barnyardgrass [24, 31]: 40 | Flatsedge plant response rating ([25]; Rate 250 g/ha): 90 | Flatsedge plant response rating ([25]; Rate 500 g/ha): 100 | Plant response rating, Flatsedge [25, 35]: 70 | Plant response rating, Flatsedge [25, 31]: 90 | Rice plant response rating ([26]; Rate 250 g/ha): 0 | Rice plant response rating ([26]; Rate 500 g/ha): 20 | Plant response rating, Rice [26, 35]: 0 | Plant response rating, Rice [26, 31]: 0

CCC(C)c1ccn(C2OCN(c3cccc(OC(F)(F)F)c3)C2=O)n1 (stereo not drawn) [Compound 67]
Plant response rating, Surinam grass [1, 27]: 50 | Plant response rating, Surinam grass [1, 28]: 20 | Plant response rating, Morningglory [2, 27]: 0 | Plant response rating, Morningglory [2, 28]: 0 | Plant response rating, Corn [3, 27]: 20 | Plant response rating, Corn [3, 28]: 0 | Plant response rating, Velvetleaf [4, 27]: 0 | Plant response rating, Velvetleaf [4, 28]: 0 | Plant response rating, Barnyardgrass [5, 27]: 100 | Plant response rating, Barnyardgrass [5, 28]: 60 | Plant response rating, Cocklebur [6, 27]: 0 | Plant response rating, Cocklebur [6, 28]: 0 | Plant response rating, Foxtail, Giant [7, 27]: 40 | Plant response rating, Foxtail, Giant [7, 28]: 40 | Plant response rating, Pigweed [8, 27]: 100 | Plant response rating, Pigweed [8, 28]: 100 | Plant response rating, Lambsquarters [9, 27]: 100 | Plant response rating, Lambsquarters [9, 28]: 100 | Plant response rating, Rice [10, 27]: 40 | Plant response rating, Rice [10, 28]: 40 | Plant response rating, Crabgrass [11, 27]: 80 | Plant response rating, Crabgrass [11, 28]: 20 | Plant response rating, Surinam grass [12, 34]: 30 | Plant response rating, Surinam grass [12, 30]: 30 | Plant response rating, Morningglory [13, 34]: 0 | Plant response rating, Morningglory [13, 30]: 0 | Plant response rating, Corn [14, 34]: 0 | Plant response rating, Corn [14, 30]: 0 | Plant response rating, Velvetleaf [15, 34]: 0 | Plant response rating, Velvetleaf [15, 30]: 20 | Plant response rating, Barnyardgrass [16, 34]: 90 | Plant response rating, Barnyardgrass [16, 30]: 100 | Plant response rating, Foxtail, Giant [17, 34]: 20 | Plant response rating, Foxtail, Giant [17, 30]: 40 | Plant response rating, Blackgrass [18, 34]: 0 | Plant response rating, Blackgrass [18, 30]: 0 | Plant response rating, Pigweed [19, 34]: 0 | Plant response rating, Pigweed [19, 30]: 0 | Plant response rating, Wheat [20, 34]: 0 | Plant response rating, Wheat [20, 30]: 0 | Plant response rating (0 to 100), Nightshade ([21]; Rate 500 g/ha): 60 | Plant response rating, Sunflower ([22]; Rate 125 g/ha): 0 | Plant response rating, Sunflower ([22]; Rate 250 g/ha): 0 | Ducksalad plant response rating ([23]; Rate 250 g/ha): 100 | Ducksalad plant response rating ([23]; Rate 500 g/ha): 100 | Plant response rating, Ducksalad [23, 35]: 50 | Plant response rating, Ducksalad [23, 31]: 90 | Barnyardgrass plant response rating ([24]; Rate 250 g/ha): 100 | Barnyardgrass plant response rating ([24]; Rate 500 g/ha): 100 | Plant response rating, Barnyardgrass [24, 35]: 60 | Plant response rating, Barnyardgrass [24, 31]: 70 | Flatsedge plant response rating ([25]; Rate 250 g/ha): 100 | Flatsedge plant response rating ([25]; Rate 500 g/ha): 100 | Plant response rating, Flatsedge [25, 35]: 100 | Plant response rating, Flatsedge [25, 31]: 100 | Rice plant response rating ([26]; Rate 250 g/ha): 60 | Rice plant response rating ([26]; Rate 500 g/ha): 90 | Plant response rating, Rice [26, 35]: 20 | Plant response rating, Rice [26, 31]: 40
